Patent US11970494B2, “6-heteroaryloxy benzimidazoles and azabenzimidazoles as JAK2 inhibitors” (Ajax Therapeutics, Inc., priority 2021, dated 2024)

Target: T1, JAK2 (JH1 domain-catalytic, Y1007F,Y1008F) kinase (Homo sapiens, UniProt O60674, Y1007F/Y1008F)
T1 construct: made in house; host or cells: transiently transfected HEK293 cells
Experiment: JAK2 Binding Assay (JAK2 JH1 Domain Binding Assay)
Conditions: JAK2 JH1 domain binding, qPCR detection; read-out: JAK2 Kd

T1 sequence (O60674 849-1124 Y1007F/Y1008F limits assumed): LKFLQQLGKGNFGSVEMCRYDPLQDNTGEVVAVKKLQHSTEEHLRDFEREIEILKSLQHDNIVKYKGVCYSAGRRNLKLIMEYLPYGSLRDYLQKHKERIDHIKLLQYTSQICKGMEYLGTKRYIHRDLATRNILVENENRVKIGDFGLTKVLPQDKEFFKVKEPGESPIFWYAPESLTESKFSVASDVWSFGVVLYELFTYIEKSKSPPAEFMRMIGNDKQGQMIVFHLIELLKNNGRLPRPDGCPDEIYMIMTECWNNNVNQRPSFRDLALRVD

Row | Kd [nM] | SMILES
1 | < 10 | CNC(=O)Nc1cc(Oc2cnc3nc(Nc4cc5n(n4)CCC54CCC4)n(C)c3c2C#N)ccn1 [Example I-58, 1-(4-((7-cyano-2-((5′,6′-dihydrospiro[cyclobutane-1,4′-pyrrolo[1,2-b]pyrazol]-2′-yl)amino)-1-methyl-1H-imidazo[4,5-b]pyridin-6-yl)oxy)pyridin-2-yl)-3-methylurea]
2 | < 10 | CO[C@H]1CCN(C(=O)Nc2cc(Oc3cnc4nc(Nc5cc6n(n5)CCC65CCC5)n(C)c4c3C#N)ccn2)C1 [Example I-59, (S)-N-(4-((7-cyano-2-((5′,6′-dihydrospiro[cyclobutane-1,4′-pyrrolo[1,2-b]pyrazol]-2′-yl)amino)-1-methyl-1H-imidazo[4,5-b]pyridin-6-yl)oxy)pyridin-2-yl)-3-methoxypyrrolidine-1-carboxamide]
3 | < 10 | COC(=O)Nc1cc(Oc2cnc3nc(Nc4cc5n(n4)CCCC54CC4)n(C)c3c2C#N)ccn1 [Example I-63, methyl (4-((7-cyano-2-((6′,7′-dihydro-5′H-spiro[cyclopropane-1,4′-pyrazolo[1,5-a]pyridin]-2′-yl)amino)-1-methyl-1H-imidazo[4,5-b]pyridin-6-yl)oxy)pyridin-2-yl)carbamate]
4 | < 10 | CNC(=O)Nc1cc(Oc2cnc3nc(Nc4cc5n(n4)CCCC54CC4)n(C)c3c2C#N)ccn1 [Example I-64, 1-(4-((7-cyano-2-((6′,7′-dihydro-5′H-spiro[cyclopropane-1,4′-pyrazolo[1,5-a]pyridin]-2′-yl)amino)-1-methyl-1H-imidazo[4,5-b]pyridin-6-yl)oxy)pyridin-2-yl)-3-methylurea]
5 | < 10 | CN(C)C(=O)Nc1cc(Oc2cnc3nc(Nc4cc5n(n4)CCCC54CC4)n(C)c3c2C#N)ccn1 [Example I-65, 3-(4-((7-cyano-2-((6′,7′-dihydro-5′H-spiro[cyclopropane-1,4′-pyrazolo[1,5-a]pyridin]-2′-yl)amino)-1-methyl-1H-imidazo[4,5-b]pyridin-6-yl)oxy)pyridin-2-yl)-1,1-dimethylurea]
6 | < 10 | Cn1c(Nc2cc3n(n2)CCC32CCC2)nc2ncc(Oc3ccnc(NC(=O)OC4COC4)c3)c(C#N)c21 [Example I-66, oxetan-3-yl (4-((7-cyano-2-((5′,6′-dihydrospiro[cyclobutane-1,4′-pyrrolo[1,2-b]pyrazol]-2′-yl)amino)-1-methyl-1H-imidazo[4,5-b]pyridin-6-yl)oxy)pyridin-2-yl)carbamate]
7 | < 10 | CN(C)C(=O)Nc1cc(Oc2cnc3nc(Nc4cc5n(n4)CCOCC5(C)C)n(C)c3c2C#N)ccn1 [Example I-67, 3-(4-((7-cyano-2-((4,4-dimethyl-4,5,7,8-tetrahydropyrazolo[1,5-d][1,4]oxazepinyl)amino)-1-methyl-1H-imidazo[4,5-b]pyridin-6-yl)oxy)pyridin-2-yl)-1,1-dimethylurea]
8 | < 10 | COC(=O)Nc1cc(Oc2cnc3nc(Nc4cc5n(n4)CCOCC5(C)C)n(C)c3c2C#N)ccn1 [Example I-68, methyl(4-((7-cyano-2-((4,4-dimethyl-4,5,7,8-tetrahydropyrazolo[1,5-d][1,4]oxazepin-2-yl)amino)-1-methyl-1H-imidazo[4,5-b]pyridin-6-yl)oxy)pyridin-2-yl)carbamate]
9 | < 10 | CNC(=O)Nc1cc(Oc2cnc3nc(Nc4cc5n(n4)CCOCC5(C)C)n(C)c3c2C#N)ccn1 [Example I-69, 1-(4-((7-cyano-2-((4,4-dimethyl-4,5,7,8-tetrahydropyrazolo[1,5-d][1,4]oxazepin-2-yl)amino)-1-methyl-1H-imidazo[4,5-b]pyridin-6-yl)oxy)pyridin-2-yl)-3-methylurea]
10 | 10 to 50 | CN(C)C(=O)Nc1cc(Oc2cnc3nc(Nc4cc5n(n4)CCN5C(C)(C)C)n(C)c3c2C#N)ccn1 [Example I-70, 3-(4-((2-((1-(tert-butyl)-2,3-dihydro-1H-imidazo[1,2-b]pyrazol-6-yl)amino)-7-cyano-1-methyl-1H-imidazo[4,5-b]pyridin-6-yl)oxy)pyridin-2-yl)-1,1-dimethylurea]
